Patent publication US10301664B2, “Repurposing non-antimicrobial drugs and clinical molecules to treat bacterial infections” (Purdue Research Foundation, priority 2015, dated 2019)
Like-named read-outs stand apart in the source and are kept apart here.

Tests used:
MRSA USA200 = assay type: in vivo, BALB/c mice; conditions: oral, EB 30 mg/kg or FdUrd 25 mg/kg once daily for three days, monitored six days
Protocol: Animal procedures were approved by the Purdue University Animal Care and Use Committee (PACUC) (protocol no. 1311000988). Eight-week-old female BALB/c mice (Harlan Laboratories, Indianapolis, Ind.) were used for this study. Mice were rendered neutropenic by treatment with cyclophosphamide intraperitoneally (IP) 150 and 100 mg/kg at four days and one day before infection, respectively. Neutropenic mice were inoculated IP with 8×10^8 MRSA USA200. At one hour after infection, the mice were divided into five groups (n=10 per group), and two groups were treated orally with either EB 30 mg/kg or FdUrd 25 mg/kg. Two groups were treated IP with either EB 30 mg/kg or FdUrd 25 mg/kg. One group was used as a control with no treatment. Treatment was continued once daily for two more days (animals received three doses total). Mortality was monitored four times daily for six days, and the cumulative percent survival was determined. The data were subjected to statistical analysis using Kaplan-Meier survival curves. A log rank test was performed for 95% confidence intervals by GraphPad Prism 6.0 (GraphPad Software, La Jolla, Calif.).

[1] = test system: Vancomycin-resistant S. aureus (VRSA); test: MIC and MBC against vancomycin-resistant S. aureus clinical isolates (CLSI); assay type: cell-based
[2] = test system: Methicillin-sensitive S. aureus (MSSA); test: MIC and MBC against methicillin-sensitive S. aureus isolates (CLSI); assay type: cell-based; conditions: Staphylococcus aureus
S. epidermidis NRS 101 = test: MIC and MBC against S. epidermidis (CLSI); assay type: cell-based; conditions: Staphylococcus epidermidis, NRS101
[3] = test system: E. fecalis ATCC 51229 (VRE); test: MIC and MBC against E. fecalis VRE (CLSI); assay type: cell-based; conditions: Enterococcus
Protocol: The NIH Clinical Collections 1 and 2 (http://www.nihclinicalcollection.com) containing 727 FDA approved drugs and small molecules previously used in human clinical trials with known safety profiles were screened against ESKAPE pathogens. The library was initially screened at a single concentration of 16 μM to identify “hit” non-antibacterial drugs. Once the antimicrobial activity of the drugs was confirmed, we determined their MICs and minimum bactericidal concentrations (MBCs) according to the Clinical and Laboratory Standards Institute (CLSI).

[4] = test system: E. faecium ATCC 700221 (VRE); test: MIC and MBC against E. faecium VRE (CLSI), Table 1; assay type: cell-based; conditions: Enterococcus faecium
[5] = test system: vancomycin resistant E. faecium ATCC 700221 (VRE); test: Library hits: MIC/MBC against VRE; assay type: cell-based; conditions: VRE
[6] = test system: Vancomycin-intermediate S. aureus (VISA); test: MIC and MBC against vancomycin-intermediate S. aureus isolates (CLSI); assay type: cell-based; conditions: Staphylococcus aureus
P. aeruginosa = test: MIC against G-ve with and without colistin: P. aeruginosa; assay type: cell-based; conditions: without colistin
[7] = test system: clinical isolates of S. aureus; test: MIC90 over clinical isolates of S. aureus; assay type: cell-based; conditions: Staphylococcus aureus, Table 1, read-out: MIC90 (MIC at which 90% of clinical isolates of S. aureus were inhibited)
MRSA USA300 = test: Library hits: MIC/MBC against MRSA; assay type: cell-based, Staphylococcus aureus; conditions: Staphylococcus aureus
[8] = test system: Methicillin resistant S. aureus (MRSA); test: MIC and MBC against methicillin resistant S. aureus clinical isolates (CLSI); assay type: cell-based; conditions: Staphylococcus aureus
[9] = test system: Colistin resistant clinical isolates of P. aeruginosa; test: MIC against G-ve with and without colistin: colistin resistant P. aeruginosa; assay type: cell-based; conditions: without colistin

O=c1c2ccccc2[se]n1-c1ccccc1 [Ebselen]
0.125 µg/mL: MIC ([1]; Staphylococcus aureus, VRSA) | MBC ([1]; Staphylococcus aureus, VRSA, VRSA4) | MBC ([1]; Staphylococcus aureus, VRSA, VRSA8) | MIC ([1]; VRSA11a) | MIC ([2]; MSSA / NRS 846) | MBC ([6]; NRS 1 / VISA) | MIC ([6]; NRS 1 / VISA) | MBC ([6]; NRS 37 / VISA) | MIC ([6]; NRS 37 / VISA) | MIC ([8]; MRSA / NRS 119) | MBC ([8]; MRSA / NRS 382) | MIC ([8]; MRSA / NRS 382) | MBC ([8]; MRSA / NRS 383) | MIC ([8]; MRSA / NRS 383) | MBC ([8]; MRSA / NRS 384) | MIC ([8]; MRSA / NRS 384) | MIC ([8]; MRSA / NRS 386) | MIC ([8]; MRSA / NRS 387) | MIC ([8]; MRSA / NRS 483)
> 64 µg/mL: MBC ([2]; MSSA / NRS 846)
1 µg/mL: MBC ([1]; Staphylococcus aureus, VRSA, VRSA3b, read-out: MBC) | MBC ([2]; MSSA / NRS 77, read-out: MBC) | MBC [4] | MBC ([8]; MRSA / NRS 194, read-out: MBC) | MBC ([8]; MRSA / NRS 385, NRS 385, read-out: MBC) | MBC ([8]; MRSA / NRS 386)
0.5 µg/mL: MBC ([1]; Staphylococcus aureus, VRSA, VRSA6, read-out: MBC) | MBC ([1]; Staphylococcus aureus, VRSA, VRSA7, read-out: MBC) | MIC ([1]; Staphylococcus aureus, VRSA, VRSA7, read-out: MIC) | MBC ([1]; Staphylococcus aureus, VRSA, VRSA9, read-out: MBC) | MBC ([1]; Staphylococcus aureus, VRSA, VRSA12, read-out: MBC) | MBC ([2]; MSSA / NRS 72, read-out: MBC) | MBC (S. epidermidis NRS 101) | MIC (S. epidermidis NRS 101) | MBC [3] | MIC [3] | MIC [4] | MBC ([8]; MRSA / NRS 100, read-out: MBC) | MBC ([8]; MRSA / NRS 123, read-out: MBC) | MIC ([8]; MRSA / NRS 385, NRS 385, read-out: MIC) | MBC ([8]; MRSA / NRS 483)
1 µM: MBC [5]
60%: mice survival compared to that of control (MRSA USA200)
>256 µg/mL: MIC, colistin (−) (P. aeruginosa) | MIC, colistin (−) [9]
0.125/0.125 mg/L: MIC ([1]; VRSA8)
0.25 µg/mL: MBC ([1]; Staphylococcus aureus, VRSA, VRSA1, read-out: MBC) | MIC ([1]; Staphylococcus aureus, VRSA, VRSA1, read-out: MIC) | MBC ([1]; Staphylococcus aureus, VRSA, VRSA2, read-out: MBC) | MIC ([1]; Staphylococcus aureus, VRSA, VRSA2, read-out: MIC) | MBC ([1]; Staphylococcus aureus, VRSA, VRSA3a, read-out: MBC) | MIC ([1]; Staphylococcus aureus, VRSA, VRSA3a, read-out: MIC) | MIC ([1]; Staphylococcus aureus, VRSA, VRSA3b, read-out: MIC) | MBC ([1]; Staphylococcus aureus, VRSA, VRSA5, read-out: MBC) | MIC ([1]; Staphylococcus aureus, VRSA, VRSA5, read-out: MIC) | MIC ([1]; Staphylococcus aureus, VRSA, VRSA6, read-out: MIC) | MIC ([1]; Staphylococcus aureus, VRSA, VRSA9, read-out: MIC) | MBC ([1]; Staphylococcus aureus, VRSA, VRSA10, read-out: MBC) | MIC ([1]; Staphylococcus aureus, VRSA, VRSA10, read-out: MIC) | MBC ([1]; Staphylococcus aureus, VRSA, VRSA11b, read-out: MBC) | MIC ([1]; Staphylococcus aureus, VRSA, VRSA11b, read-out: MIC) | MIC ([1]; Staphylococcus aureus, VRSA, VRSA12, read-out: MIC) | MBC ([1]; Staphylococcus aureus, VRSA, VRSA13, read-out: MBC) | MIC ([1]; Staphylococcus aureus, VRSA, VRSA13, read-out: MIC) | MIC ([2]; MSSA / NRS 72, read-out: MIC) | MIC ([2]; MSSA / NRS 77, read-out: MIC) | MBC ([2]; MSSA / NRS 860, read-out: MBC) | MIC ([2]; MSSA / NRS 860, read-out: MIC) | MIC90 [7] | MBC ([8]; MRSA / NRS 70, read-out: MBC) | MIC ([8]; MRSA / NRS 70, read-out: MIC) | MBC ([8]; MRSA / NRS 71, read-out: MBC) | MIC ([8]; MRSA / NRS 71, read-out: MIC) | MIC ([8]; MRSA / NRS 100, read-out: MIC) | MBC ([8]; MRSA / NRS 108, read-out: MBC) | MIC ([8]; MRSA / NRS 108, read-out: MIC) | MBC ([8]; MRSA / NRS 119) | MIC ([8]; MRSA / NRS 123, read-out: MIC) | MIC ([8]; MRSA / NRS 194, read-out: MIC) | MBC ([8]; MRSA / NRS 387) | MBC ([8]; MRSA / NRS 484, NRS 484, read-out: MBC) | MIC ([8]; MRSA / NRS 484, NRS 484, read-out: MIC)
< 0.5 µM: MIC (MRSA USA300; read-out: MIC)
0.5 µM: MIC ([5]; read-out: MIC) | MBC (MRSA USA300; read-out: MBC)
